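Growth conditions: 96-well plates. Treatment: test compound, 48 hours, 5 concentrations. Analysis: linear interpolation between bracketing concentrations; unreached endpoints set to highest concentration. Here, GI50 denotes the concentration required for 50% inhibition of growth.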 Calls of active or inactive are those of the source. No stated cut-off is given here; in the data, active = GI50 up to about 1.1 µM and inactive = higher.
What was measured:
Assay in all cases: DTP human tumour cell line panel, 48 h
COLO 205 = tested on: COLO 205
A549 = tested on: A549
ACHN = tested on: ACHN
NCI-H23 = tested on: NCI-H23
UACC-257 = tested on: UACC-257
IGROV-1 = tested on: IGROV-1
RXF 393 = tested on: RXF 393
KM12 = tested on: KM12
SNB-78 = tested on: SNB-78
HOP-92 = tested on: HOP-92
OVCAR-5 = tested on: OVCAR-5
SN12C = tested on: SN12C
A498 = tested on: A498
KM-20L2 = tested on: KM-20L2
786-0 = tested on: 786-0
DMS-273 = tested on: DMS-273
SNB-19 = tested on: SNB-19
DMS-114 = tested on: DMS-114
NCI/ADR-RES = tested on: NCI/ADR-RES
Hs-578T = tested on: Hs-578T

SMILES | GI50 (COLO 205) | GI50 (A549) | GI50 (ACHN) | GI50 (NCI-H23) | GI50 (UACC-257) | GI50 (IGROV-1) | GI50 (RXF 393) | GI50 (KM12) | GI50 (SNB-78) | GI50 (HOP-92) | GI50 (OVCAR-5) | GI50 (SN12C) | GI50 (A498) | GI50 (KM-20L2) | GI50 (786-0) | GI50 (DMS-273) | GI50 (SNB-19) | GI50 (DMS-114) | GI50 (NCI/ADR-RES) | GI50 (Hs-578T)
O=C1CCC2(c3ccc(F)cc3)Nc3ncccc3N12 (stereo not drawn) | > 100 µM (inactive) | > 100 µM (inactive) | > 100 µM (inactive) | > 100 µM (inactive) | > 100 µM (inactive) | > 100 µM (inactive) | > 100 µM (inactive) | > 100 µM (inactive) | > 100 µM (inactive) | > 100 µM (inactive) | > 100 µM (inactive) | > 100 µM (inactive) | > 100 µM (inactive) | > 100 µM (inactive) | > 100 µM (inactive) | – | – | – | – | –
CC1=C(O)C(=O)C2C(=O)C1C(C)C2c1ccc(Cl)cc1 (stereo not drawn) | > 100 µM (inactive) | > 100 µM (inactive) | > 100 µM (inactive) | > 100 µM (inactive) | – | > 100 µM (inactive) | > 100 µM (inactive) | > 100 µM (inactive) | > 100 µM (inactive) | > 100 µM (inactive) | > 100 µM (inactive) | – | > 100 µM (inactive) | – | > 100 µM (inactive) | > 100 µM (inactive) | > 100 µM (inactive) | – | – | –
O=C(CO)CC(=O)C(=O)Nc1cccc(C(F)(F)F)c1 | > 100 µM (inactive) | > 100 µM (inactive) | > 100 µM (inactive) | > 100 µM (inactive) | > 100 µM (inactive) | > 100 µM (inactive) | – | > 100 µM (inactive) | – | > 100 µM (inactive) | > 100 µM (inactive) | > 100 µM (inactive) | – | > 100 µM (inactive) | > 100 µM (inactive) | > 100 µM (inactive) | > 100 µM (inactive) | – | – | –
Cc1cc(=O)n(-c2cc3cccccc-3n2)[nH]1 | 14.4 µM (inactive) | 12.4 µM (inactive) | 5.87 µM (inactive) | 4.8 µM (inactive) | 5.15 µM (inactive) | 2.78 µM (inactive) | 2.36 µM (inactive) | 5.38 µM (inactive) | – | – | 15.5 µM (inactive) | 5.74 µM (inactive) | 16.8 µM (inactive) | 38.4 µM (inactive) | 4.58 µM (inactive) | – | 43.6 µM (inactive) | 2.38 µM (inactive) | – | –
Cc1ccc(C(=O)Nc2ccc(CP(=O)(O)O)cc2)cc1NC(=O)c1cccc(N)c1 | > 100 µM (inactive) | > 100 µM (inactive) | > 100 µM (inactive) | > 100 µM (inactive) | > 100 µM (inactive) | > 100 µM (inactive) | > 100 µM (inactive) | > 100 µM (inactive) | – | > 100 µM (inactive) | > 100 µM (inactive) | > 100 µM (inactive) | > 100 µM (inactive) | – | > 100 µM (inactive) | – | > 100 µM (inactive) | – | > 100 µM (inactive) | > 100 µM (inactive)
CCCCCCC(=O)C/C(=N/NC(N)=S)C(=O)NC1C2CC3CC(C2)CC1C3 (stereo not drawn) | > 100 µM (inactive) | > 100 µM (inactive) | > 100 µM (inactive) | > 100 µM (inactive) | > 100 µM (inactive) | > 100 µM (inactive) | > 100 µM (inactive) | > 100 µM (inactive) | > 100 µM (inactive) | 86.1 µM (inactive) | > 100 µM (inactive) | > 100 µM (inactive) | – | > 100 µM (inactive) | > 100 µM (inactive) | – | > 100 µM (inactive) | – | – | –
Cc1cc2c(C)nn(Cc3ccc(Cl)cc3Cl)c2c(C#N)c1C | – | 86.3 µM (inactive) | > 100 µM (inactive) | > 100 µM (inactive) | 37.8 µM (inactive) | > 100 µM (inactive) | 67 µM (inactive) | – | > 100 µM (inactive) | 35.9 µM (inactive) | > 100 µM (inactive) | > 100 µM (inactive) | – | > 100 µM (inactive) | > 100 µM (inactive) | > 100 µM (inactive) | > 100 µM (inactive) | – | – | –
COC12C=C(C)C(CC1)CC2C(=O)O (stereo not drawn) | > 100 µM (inactive) | > 100 µM (inactive) | > 100 µM (inactive) | > 100 µM (inactive) | > 100 µM (inactive) | > 100 µM (inactive) | > 100 µM (inactive) | > 100 µM (inactive) | > 100 µM (inactive) | > 100 µM (inactive) | > 100 µM (inactive) | > 100 µM (inactive) | > 100 µM (inactive) | > 100 µM (inactive) | > 100 µM (inactive) | > 100 µM (inactive) | > 100 µM (inactive) | – | – | –
C[C@@]1(CO)[C@H](O)CC[C@@]2(C)[C@H]1CC[C@H]1C[C@@H]3C[C@@]12CC[C@@]3(O)COC(=O)CN | 19.1 µM (inactive) | – | 0.098 µM (active) | 2.08 µM (inactive) | 33.9 µM (inactive) | – | – | 28 µM (inactive) | – | 20.4 µM (inactive) | – | – | – | – | 0.923 µM (active) | 0.486 µM (active) | – | – | – | 53.1 µM (inactive)
O=c1[nH]c(=O)n(C2OC(CO)C(O)C2O)cc1OCCc1ccccc1 (stereo not drawn) | > 100 µM (inactive) | > 100 µM (inactive) | > 100 µM (inactive) | > 100 µM (inactive) | > 100 µM (inactive) | > 100 µM (inactive) | > 100 µM (inactive) | > 100 µM (inactive) | – | > 100 µM (inactive) | > 100 µM (inactive) | > 100 µM (inactive) | > 100 µM (inactive) | – | > 100 µM (inactive) | – | > 100 µM (inactive) | – | > 100 µM (inactive) | > 100 µM (inactive)
CCCCCCCCCCCC(=O)N(CCCCCCCCCCC(=O)O)CC(O)C(O)C(OC1OC(CO)C(O)C(O)C1O)C(O)CO (stereo not drawn) | > 100 µM (inactive) | > 100 µM (inactive) | > 100 µM (inactive) | > 100 µM (inactive) | > 100 µM (inactive) | > 100 µM (inactive) | > 100 µM (inactive) | > 100 µM (inactive) | – | > 100 µM (inactive) | > 100 µM (inactive) | > 100 µM (inactive) | > 100 µM (inactive) | – | > 100 µM (inactive) | – | > 100 µM (inactive) | – | > 100 µM (inactive) | > 100 µM (inactive)
Nc1nc2[nH]cnc2c(=O)[nH]1 | > 100 µM (inactive) | > 100 µM (inactive) | > 100 µM (inactive) | > 100 µM (inactive) | > 100 µM (inactive) | > 100 µM (inactive) | > 100 µM (inactive) | > 100 µM (inactive) | > 100 µM (inactive) | > 100 µM (inactive) | > 100 µM (inactive) | > 100 µM (inactive) | > 100 µM (inactive) | > 100 µM (inactive) | > 100 µM (inactive) | > 100 µM (inactive) | – | – | – | –
CC(C)[C@@H]1ON1C(C)c1ccccc1 (stereo partly drawn) | > 100 µM (inactive) | > 100 µM (inactive) | > 100 µM (inactive) | > 100 µM (inactive) | > 100 µM (inactive) | 70.6 µM (inactive) | > 100 µM (inactive) | > 100 µM (inactive) | – | > 100 µM (inactive) | > 100 µM (inactive) | > 100 µM (inactive) | > 100 µM (inactive) | – | > 100 µM (inactive) | – | > 100 µM (inactive) | – | > 100 µM (inactive) | > 100 µM (inactive)

Reference: ChEMBL document CHEMBL1201862, “PubChem BioAssay data set” (2004)
